From US12023333B2, “Phenyl-sulfamoyl.benzoyc acids as ERAP1 modulators” (GREY WOLF THERAPEUTICS LIMITED, priority 2019, dated 2024)
pIC50: −log10 of the molar value.

What follows are molecules tested against T1, Purified ERAP1(37-941)-10His (ERAP1) (Homo sapiens, UniProt Q9NZ08) (assay: ERAP1 mediated hydrolysis of an amide substrate measured in a biochemical system (10-mer decapeptide substrate)). Conditions: 10-mer substrate, 23° C. for 1 h, excitation 279 nm and emission 355 nm; read-out: IC50 vs Decapeptide WRVYEKC(Dnp)ALK-acid (where Dnp is Dinitrophenyl maleimide) (10-mer).
T1 construct: Purified ERAP1(37-941)-10His (ERAP1); 10His (C)
Method in brief: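 ERAP1(37-941)-10His preincubated with compound in 25 mM Bis-tris propane, 0.05% HPMC, pH 7.75, then reacted 1 h at 23 °C with 10-mer WRVYEKC(Dnp)ALK (100 μM solution added in equal volume). Fluorescence read at ex 279/em 355 nm; IC50 from 4-parameter fit.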

T1 sequence (Q9NZ08 37-941): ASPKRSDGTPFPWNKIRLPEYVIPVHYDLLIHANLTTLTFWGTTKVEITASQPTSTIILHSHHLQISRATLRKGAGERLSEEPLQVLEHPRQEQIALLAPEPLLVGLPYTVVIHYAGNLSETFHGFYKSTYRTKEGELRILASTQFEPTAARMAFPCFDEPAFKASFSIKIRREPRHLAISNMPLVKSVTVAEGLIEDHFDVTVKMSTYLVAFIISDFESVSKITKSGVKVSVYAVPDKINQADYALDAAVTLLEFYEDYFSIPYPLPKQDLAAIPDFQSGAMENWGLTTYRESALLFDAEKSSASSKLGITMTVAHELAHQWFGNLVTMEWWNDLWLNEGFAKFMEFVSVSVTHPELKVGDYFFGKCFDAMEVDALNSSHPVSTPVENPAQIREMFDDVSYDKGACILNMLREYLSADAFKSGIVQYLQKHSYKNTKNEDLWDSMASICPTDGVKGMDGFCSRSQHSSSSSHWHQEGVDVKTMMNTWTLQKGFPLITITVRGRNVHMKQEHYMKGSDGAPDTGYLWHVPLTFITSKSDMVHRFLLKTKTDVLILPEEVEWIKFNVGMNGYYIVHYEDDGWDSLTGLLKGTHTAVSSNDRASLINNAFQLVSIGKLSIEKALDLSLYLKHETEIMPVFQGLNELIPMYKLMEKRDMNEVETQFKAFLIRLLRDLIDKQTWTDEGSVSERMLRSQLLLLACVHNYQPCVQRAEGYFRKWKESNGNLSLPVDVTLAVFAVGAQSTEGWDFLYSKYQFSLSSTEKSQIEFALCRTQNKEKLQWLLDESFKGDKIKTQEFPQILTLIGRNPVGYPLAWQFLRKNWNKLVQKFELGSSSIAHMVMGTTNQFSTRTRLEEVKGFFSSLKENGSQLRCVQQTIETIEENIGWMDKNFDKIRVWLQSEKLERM

Structure (SMILES) | pIC50
N#Cc1ccc(-c2cscn2)c(NS(=O)(=O)c2cc(C(=O)O)ccc2C2CC2)c1 [Example 159, 3-(N-(5-cyano-2-(thiazol-4-yl)phenyl)sulfamoyl)-4-cyclopropylbenzoic acid] | > 6.30
O=C(O)c1ccc(C2CC2)c(S(=O)(=O)Nc2cc(C(F)(F)F)ccc2-c2ccc(C3CC3)s2)c1 [Example 114, 4-cyclopropyl-3-(N-(2-(5-cyclopropylthiophen-2-yl)-5-(trifluoromethyl)phenyl)sulfamoyl)benzoic acid] | > 6.30
O=C(O)c1ccc(C2CC2)c(S(=O)(=O)Nc2cc(C(F)(F)F)ccc2-c2cccc(F)c2)c1 [Example 92, 4-cyclopropyl-3-(N-(3′-fluoro-4-(trifluoromethyl)-[1,1′-biphenyl]-2-yl)sulfamoyl)benzoic acid] | > 6.30
Cn1nccc1-c1ccc(-n2cccc2)c(NS(=O)(=O)c2cc(C(=O)O)ccc2C2CC2)c1 [Example 197, 4-cyclopropyl-3-(N-(5-(1-methylpyrazol-5-yl)-2-(pyrrol-1-yl)phenyl)sulfamoyl)benzoic acid] | > 6.30
COc1ccc(C(=O)O)cc1S(=O)(=O)Nc1cc(S(C)(=O)=O)ccc1-c1ccc(Cl)s1 [Example 88, 3-(N-(2-(5-chlorothiophen-2-yl)-5-(methylsulfonyl)phenyl)sulfamoyl)-4-methoxybenzoic acid] | > 6.30
CCc1ccc(C(=O)O)cc1S(=O)(=O)Nc1cc(C(F)(F)F)ccc1-c1ccc(C)s1 [Example 58, 4-ethyl-3-(N-(2-(5-methylthiophen-2-yl)-5-(trifluoromethyl)phenyl)sulfamoyl)benzoic acid] | > 6.30
CCc1ccc(C(=O)O)cc1S(=O)(=O)Nc1cc(C#N)ccc1-c1ccccc1 [Example 40, 3-(N-(4-cyano-[1,1′-biphenyl]-2-yl)sulfamoyl)-4-ethylbenzoic acid] | > 6.30
COc1ccc(C(=O)O)cc1S(=O)(=O)Nc1cc(S(C)(=O)=O)ccc1-c1ccccn1 [Example 44, 4-methoxy-3-(N-(5-(methylsulfonyl)-2-(pyridin-2-yl)phenyl)sulfamoyl)benzoic acid] | > 6.30
O=C(O)c1ccc(C2CC2)c(S(=O)(=O)Nc2cc(-c3ccns3)ccc2-n2cccc2)c1 [Example 143, 4-cyclopropyl-3-(N-(5-(isothiazol-5-yl)-2-(pyrrol-1-yl)phenyl)sulfamoyl)benzoic acid] | > 6.30
CCc1ccc(C(=O)O)cc1S(=O)(=O)Nc1cc(S(C)(=O)=O)ccc1-n1cccc1 [Example 108, 4-ethyl-3-(N-(5-(methylsulfonyl)-2-(pyrrol-1-yl)phenyl)sulfamoyl)benzoic acid] | > 6.30
COc1ccc(C(=O)O)cc1S(=O)(=O)Nc1cc(C(F)(F)F)ccc1-c1ccc(F)s1 [Example 117, 3-(N-(2-(5-fluorothiophen-2-yl)-5-(trifluoromethyl)phenyl)sulfamoyl)-4-methoxybenzoic acid] | > 6.30
COc1ccc(C(=O)O)cc1S(=O)(=O)Nc1cc(S(C)(=O)=O)ccc1-c1ccc(F)s1 [Example 105, 3-(N-(2-(5-fluorothiophen-2-yl)-5-(methylsulfonyl)phenyl)sulfamoyl)-4-methoxybenzoic acid] | > 6.30
O=C(O)c1ccc(C2CC2)c(S(=O)(=O)Nc2cc(-n3cnnn3)c(F)cc2-n2cccc2)c1 [Example 207, 4-cyclopropyl-3-(N-(4-fluoro-2-(pyrrol-1-yl)-5-(tetrazol-1-yl)phenyl)sulfamoyl)benzoic acid] | > 6.30
CCc1ccc(C(=O)O)cc1S(=O)(=O)Nc1cc(C(F)(F)F)ccc1-c1ncccc1F [Example 66, 4-ethyl-3-(N-(2-(3-fluoropyridin-2-yl)-5-(trifluoromethyl)phenyl)sulfamoyl)benzoic acid] | > 6.30
COc1ccc(C(=O)O)cc1S(=O)(=O)Nc1cc(C(F)(F)F)ccc1-c1cnco1 [Example 25, 4-methoxy-3-(N-(2-(oxazol-5-yl)-5-(trifluoromethyl)phenyl)sulfamoyl) benzoic acid] | > 5.30
N#Cc1ccc(-c2ncccn2)c(NS(=O)(=O)c2cc(C(=O)O)ccc2C2CC2)c1 [Example 169, 3-(N-(5-cyano-2-(pyrimidin-2-yl)phenyl)sulfamoyl)-4-cyclopropylbenzoic acid] | > 6.30
N#Cc1ccc(-c2cccs2)c(NS(=O)(=O)c2cc(C(=O)O)ccc2C2CC2)c1 [Example 75, 3-(N-(5-cyano-2-(thiophen-2-yl)phenyl)sulfamoyl)-4-cyclopropylbenzoic acid] | > 6.30
O=C(O)c1ccc(C2CC2)c(S(=O)(=O)Nc2cc(C(F)(F)F)ccc2-c2ccsn2)c1 [Example 151, 4-cyclopropyl-3-(N-(2-(isothiazol-3-yl)-5-(trifluoromethyl)phenyl)sulfamoyl)benzoic acid] | > 6.30
COc1ccc(C(=O)O)cc1S(=O)(=O)Nc1cc(C(F)(F)F)ccc1-c1ccccc1C(C)C [Example 51, 3-(N-(2′-isopropyl-4-(trifluoromethyl)-[1,1′-biphenyl]-2-yl)sulfamoyl)-4-methoxybenzoic acid] | > 5.30
N#Cc1cc(NS(=O)(=O)c2cc(C(=O)O)ccc2C2CC2)c(-c2cscn2)cc1Cl [Example 178, 3-(N-(4-chloro-5-cyano-2-(thiazol-4-yl)phenyl)sulfamoyl)-4-cyclopropylbenzoic acid] | > 6.30
Cc1cc(C#N)cc(NS(=O)(=O)c2cc(C(=O)O)ccc2C2CC2)c1-c1ccccn1 [Example 176, 3-(N-(5-cyano-3-methyl-2-(pyridin-2-yl)phenyl)sulfamoyl)-4-cyclopropylbenzoic acid] | > 6.30
O=C(O)c1ccc(C2CC2)c(S(=O)(=O)Nc2cc(-n3cnnn3)c(F)cc2-c2ccccn2)c1 [Example 190, 4-cyclopropyl-3-(N-(4-fluoro-2-(pyridin-2-yl)-5-(tetrazol-1-yl)phenyl)sulfamoyl)benzoic acid] | > 6.30
COc1ccc(C(=O)O)cc1S(=O)(=O)Nc1cc(C#N)ccc1-c1ccccn1 [Example 45, 3-(N-(5-cyano-2-(pyridin-2-yl)phenyl)sulfamoyl)-4-methoxybenzoic acid] | > 6.30
CCc1ccc(C(=O)O)cc1S(=O)(=O)Nc1cc(C(F)(F)F)ccc1-c1ccc(C#N)s1 [Example 77, 3-(N-(2-(5-cyanothiophen-2-yl)-5-(trifluoromethyl)phenyl)sulfamoyl)-4-ethylbenzoic acid] | > 6.30
CCc1ccc(C(=O)O)cc1S(=O)(=O)Nc1cc(S(C)(=O)=O)ccc1-c1ccccc1 [Example 32, 4-ethyl-3-(N-(4-(methylsulfonyl)-[1,1′-biphenyl]-2-yl)sulfamoyl)benzoic acid] | > 6.30
CS(=O)(=O)c1ccc(-c2cccc(F)c2)c(NS(=O)(=O)c2cc(C(=O)O)ccc2C2CC2)c1 [Example 93, 4-cyclopropyl-3-(N-(3′-fluoro-4-(methylsulfonyl)-[1,1′-biphenyl]-2-yl)sulfamoyl)benzoic acid] | > 6.30
N#Cc1ccc(-c2ccc(C#N)s2)c(NS(=O)(=O)c2cc(C(=O)O)ccc2C2CC2)c1 [Example 126, 3-(N-(5-cyano-2-(5-cyanothiophen-2-yl)phenyl)sulfamoyl)-4-cyclopropylbenzoic acid] | > 6.30
